Experimental data from patent publication US11203773B2, “Designer ribosomes and methods of use thereof for incorporating non-standard amino acids into polypeptides” (Yale University, priority 2016, dated 2021).
Like-named read-outs stand apart in the source and are kept apart here.

Experiments:
E. coli GluRS [1] = target: T1, E. coli GluRS (Escherichia coli, UniProt P04805); test: Aminoacylation of 32P-tRNA with α- and β3-amino acids; assay type: biochemical; parameters: made in house; host or cells: E. coli BL21(DE3)
E. coli GluRS [2] = target: T1, E. coli GluRS; test: Deacylation assay of [32P]-aminoacyl-tRNA; assay type: biochemical; parameters: made in house; host or cells: E. coli BL21(DE3); conditions: for krev (apparent rate of deacylation): deacylation of aminoacyl-tRNA, GluRS 5.0 μM, 25° C.
Protocol: (§3) Deacylation assays. Large scale (200 μL) aminoacylation reactions were initiated using the conditions described above (iv). The reactions were allowed to proceed for 1 h at 37° C., after which each reaction mixture was phenol/chloroform extracted. In each case, the aminoacylated tRNA product was ethanol precipitated, and the buffer was exchanged using a micro Bio-Spin 6 column (BioRad) following the procedure specified by the manufacturer and 100 mM HEPES (pH 8.0) containing 100 mM KCl. The precise extent of aminoacylation was calculated using the procedure described above; the 2 μM concentration corresponds to total aminoacylated tRNA. Assays were performed at 25° C. in a 50 μL reaction with 2 μM [^32P]-aminoacyl-tRNA in 100 mM HEPES (pH 7.0) containing 100 mM KCl and 15 mM MgCl2.

E. coli GluRS [3] = target: T1, E. coli GluRS; test: Adenylation of α- and β3-amino acids, pyrophosphate exchange assay; conditions: for kcat (min^−1) or RSA (^32P-ATP formed min^−1 enzyme μM^−1): 25° C., pH 7.0
Protocol: (§4) Adenylation of α- and β-Amino Acids Catalyzed by E. coli PheRS, GlyRS, MetRS, and GluRS. […] Briefly, assay mixtures (50 μL) assembled at 25° C. contained the requisite α- or β^3-amino acid substrate (between 5 μM and 5 mM) in 100 mM HEPES (pH 7.0) containing 100 mM KCl, 15 mM MgCl2, 2 mM ATP, 0.5 mM NaPPi, and 50 μCi [^32P]-NaPPi). Reactions were initiated upon addition of enzyme (10 nM MetRS, 10 nM PheRS, or 50 nM GlyRS; 100 nM GluRS for reactions with α-Glu or 1.13 μM GluRS for reactions with β^3-Glu), incubated for various times (10 sec to 10 min), and halted by adding a 5 μL reaction aliquot to 100 μL quenching solution (10% charcoal, 0.5% HCl). 50 μL of 200 mM NaPPi in 1.5 N HCl was then added to each quenched reaction to decrease nonspecific binding of pyrophosphate to the charcoal. Each quenched reaction was then filtered through Whatman filter paper (number 3), previously washed with washing solution (200 mM NaPPi in 1 N HCl) using a 96-well BIO-DOT® apparatus (BioRad). Each well of the apparatus was then washed four times with 200 μL aliquots of washing solution (by pipetting washing solution up and down at least 10 times per wash) to minimize nonspecific binding of pyrophosphate to charcoal. Each experimental well was paired with an analogous control well (no-enzyme control) that lacked enzyme; a single membrane contained time points for both α- and β^3-amino acid substrates and all no-enzyme controls. The membrane was allowed to dry and was protected with a sheet of Microseal B adhesive seals (Biorad) prior to exposure to a BAS Storage Phosphor screen. Screens were imaged on a Typhoon 9500FLA biomolecule imager and the signal intensity of each dot was quantified using ImageJ to determine the relative amount of [^32P]-ATP formed as a function of time (Ctime). Each raw value were corrected by subtracting the intensity of the dot corresponding to the appropriate no-enzyme control (Cblank) and the resulting corrected values of Ccorr (representing the relative amounts of ^32P-ATP formed) were plotted as a function of time to determine values of relative ^32P-ATP formed per minute. Those values were divided by the concentration of enzyme used, and the data was plotted as relative specific activity (^32P-ATP formed min^−1×μM^−1 enzyme) and fitted using Prism by performing nonlinear regression using the least squares method and Equation 1 to obtain RSA (relative specific activity) and KM values (Equation 1 and Table 2).
(§5) In Equation 1, v is the apparent relative specific activity (relative ^32P-ATP formed per minute) obtained at each substrate concentration divided by the enzyme concentration, RSA is the relative specific activity, S is the concentration of substrate, and KM is the Michaelis-Menten constant.

E. coli MetRS [4] = target: T2, E. coli MetRS (Escherichia coli, UniProt P00959); conditions: for kcat (min^−1) or RSA (^32P-ATP formed min^−1 enzyme μM^−1): 25° C., pH 7.0
Protocol: as §4, §5

E. coli MetRS [5] = target: T2, E. coli MetRS
Protocol: Aminoacylation of α- and β^3-amino acids. All tRNAs were prepared for aminoacylation by heating ^32P-tRNA (in 100 mM HEPES (pH 7.0)) to 95° C. for 3 min, and adding sufficient aminoacylation buffer (100 mM HEPES (pH 7.0), 100 mM KCl, 15 mM MgCl2) to ensure [^32P-tRNA]=4 μM. This tRNA mixture was allowed to cool at RT for 30 min. […] Equal volumes of the tRNA and amino acid mix were combined, and enzyme was added to initiate the reaction. The final concentration of tRNA after mixing was 2 μM. Reactions were quenched at various time points by mixing 1 μL of the reaction mixture with 4 μL of P1 (Sigma) or S1 (Invitrogen) nuclease solution (0.5 U/μL final prepared from a 10 U/μL stock solution in 10 mM NaOAc (pH 5.0). PEI cellulose TLC plates were run as previously described (Ledoux, et al., Methods, 44:74 (2008)), exposed to a BAS Storage Phosphor Screen, and imaged using a Typhoon FLA9500 biomolecule imager. The intensity of each band was quantified using ImageJ. The sum of the intensities of the bands corresponding to [^32P]-AMP (IAMP) and aminoacyl-[^32P]-AMP (IAA) was set equal to 2 μM, and the concentration of aminoacylated-tRNA at each time point and each enzyme concentration (μM product formed, x) calculated from the equation x=[(IAA×2 μM)/(IAA+IAMP)]. The increase in aminoacyl-^32P-AMP over time was divided by the amount of enzyme used, plotted as a function of substrate concentration and fitted to a hyperbolic equation to obtain kcat and KM values, using Equation 1 and Prism as described for the adenylation reactions. For all aminoacylation reactions, kcat has units of reciprocal time (min^−1).

E. coli MetRS [6] = target: T2, E. coli MetRS; conditions: for krev (apparent rate of deacylation): deacylation of aminoacyl-tRNA, MetRS 500 nM, 25° C.
Protocol: as §3

E. coli TyrRS [7] = target: T3, E. coli TyrRS (Escherichia coli, UniProt P0AGJ9); test: Adenylation of α- and β-Tyr, coupled MESG/PNP pyrophosphate release assay; assay type: biochemical
T3 construct: made in house; host or cells: E. coli BL21(DE3)
T3 sequence (P0AGJ9 1-424): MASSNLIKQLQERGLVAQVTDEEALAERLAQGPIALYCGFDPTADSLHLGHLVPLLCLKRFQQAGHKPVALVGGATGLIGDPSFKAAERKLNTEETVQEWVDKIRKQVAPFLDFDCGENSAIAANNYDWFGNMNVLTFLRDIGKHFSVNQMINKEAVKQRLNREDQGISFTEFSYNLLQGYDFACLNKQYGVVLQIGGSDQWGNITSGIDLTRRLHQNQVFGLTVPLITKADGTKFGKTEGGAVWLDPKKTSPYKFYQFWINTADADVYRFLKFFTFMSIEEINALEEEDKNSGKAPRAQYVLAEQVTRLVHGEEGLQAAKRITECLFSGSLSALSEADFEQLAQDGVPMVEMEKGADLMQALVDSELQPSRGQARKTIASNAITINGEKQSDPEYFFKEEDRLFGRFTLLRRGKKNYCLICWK
Excerpt: ii. Adenylation of α- and β-Tyr catalyzed by E. coli TyrRS. These reactions were monitored spectrophotometrically in a coupled assay using inorganic pyrophosphatase, 2-amino-6-mercapto-7-methylpurine ribonucleoside (MESG), and purine nucleoside phosphorylase (PNP) to monitor the rate of pyrophosphate release, according to the manufacturer's instructions (Enzcheck Pyrophosphate assay kit, Thermo Fisher Scientific). The assay measures the increase in absorbance at 360 nm due to MESG phosphorolysis, and two molecules of MESG are consumed per pyrophosphate generated. This direct assay could be employed for TyrRS because the rate of ATP hydrolysis (in the absence of amino acid substrate) was insignificant, which was not the case for the other synthetases which therefore required the more laborious pyrophosphate exchange assay described above. […] For TyrRS, kcat is the turnover number (units of reciprocal time) since the change in absorbance can be directly correlated to concentration of pyrophosphate formed.

E. coli TyrRS [8] = target: T3, E. coli TyrRS; test: Aminoacylation of 32P-tRNA with α- and β3-amino acids; assay type: biochemical
E. coli TyrRS [9] = target: T3, E. coli TyrRS; test: Deacylation assay of [32P]-aminoacyl-tRNA; assay type: biochemical; conditions: for krev (apparent rate of deacylation): deacylation of aminoacyl-tRNA, TyrRS 1 μM, 25° C.
Protocol: as §3

E. coli PheRS [10] = target: T4, E. coli PheRS (Escherichia coli, UniProt P08312); test: Aminoacylation of 32P-tRNA with α- and β3-amino acids; assay type: biochemical; parameters: made in house; host or cells: E. coli BL21(DE3)
E. coli PheRS [11] = target: T4, E. coli PheRS; test: Deacylation assay of [32P]-aminoacyl-tRNA; assay type: biochemical; parameters: made in house; host or cells: E. coli BL21(DE3); conditions: deacylation of aminoacyl-tRNA, PheRS 500 nM, 25° C.
Protocol: as §3

E. coli PheRS [12] = target: T4, E. coli PheRS; test: Adenylation of α- and β3-amino acids, pyrophosphate exchange assay
Protocol: as §4, §5

[13] = test system: BL21(DE3) cells expressing 040329 ribosomes along with WT ribosomes; test: Expression of DHFR in 19/20 minimal media supplemented with amino acid (SDS-PAGE); assay type: cell-based, E. coli; conditions: 040329 + WT ribosomes, media supplemented with 1 mM of the amino acid
Excerpt: (§1) To evaluate the extent of in vivo β^3-amino acid incorporation, BL21 (DE3) cells were co-transformed via electroporation (vide infra) with two plasmids. […] The other plasmid encoded either the WT rrnb sequence (pLK35-rrnb), the 040329 mutant reported by Hecht (pLK35-040329.rrnb), or the P7A7 mutant (pLK35-P7A7.rrnb) identified during the puromycin sensitivity screen described above.
(§2) ii. β^3-amino acid incorporation. The subsequent protocol for in vivo β^3-amino acid incorporation employed minimal media and was adapted from procedures reported by Tirrell and Cropp (Liu, et al., Bioorg Med Chem Lett, 20:5613 (2010); Mandavi, et al., J Am Chem Soc, 135:2979 (2013)). Briefly, all 5 mL of the co-transformed cells prepared as described above were diluted into 100 mL of LB containing 50 ng/mL of kanamycin and […] of carbenicillin and grown to OD600=1.0, spun down, and then resuspended in 1/10th the original volume of 19/20 minimal media (10.5 g/L M9 salts, 0.1 mM CaCl2, 1 mM MgSO4, 1% glycerol, 100 μM of each amino acid (minus α-Phe), 25 mg/L thiamine, […] carbenicillin, 30 ng/mL kanamycin, 1 mM IPTG) supplemented with 1 mM of α-Phe or a β^3-Phe analog. Cells were grown overnight (18 h) at 37° C. while shaking (200 rpm). The cells were harvested by centrifugation (10 min at 4000×g) and resuspended in lysis buffer (50 mM NaH2PO4, 300 mM NaCl, 10 mM imidazole (pH 8.0)). Lysis was performed by sonication (Branson Sonifier 250) with 5 cycles of 20 s on, 20 s off. Lysed cells were then centrifuged for 20 min at 15000×g. The clarified cell lysate was incubated with Ni-NTA resin (Qiagen) for 1 h while gently rotating at 4° C. The Ni-NTA column was washed with lysis buffer prior to eluting proteins with elution buffer (50 mM NaH2PO4, 300 mM NaCl, 300 mM imidazole (pH 8.0)). Elutions were analyzed with SDS-PAGE to prepare material for in-gel trypsin digestions. Controls included side-by-side growths in (1) unsupplemented 19/20 minimal media, which contains only low levels of α-Phe present (negative control); (2). 19/20 minimal media supplemented with 1 mM α-Phe (positive control) and (3) and 19/20 minimal media supplemented with 1 mM β^3-Gly (negative control; β^3-aa that is not a β^3-Phe analog).

[14] = test system: BL21(DE3) cells expressing P7A7 ribosomes along with WT ribosomes; test: as above; assay type: cell-based, E. coli; conditions: media supplemented with 1 mM of the amino acid
Excerpt: as §1, §2

[15] = test system: BL21(DE3) cells expressing only WT ribosomes; test: as above; assay type: cell-based, E. coli; conditions: 19/20 minimal media supplemented with 1 mM of the amino acid
Excerpt: as §1, §2

[16] = test system: DHFR position 128 translated in E. coli BL21 (DE3); test: Spectral counting (LC-MS/MS of tryptic peptides) of β3-(p-Br)Phe and α-Phe incorporation into DHFR in vivo; assay type: cell-based; conditions: spectral counting
Excerpt: as §1
as §2, with “19/20 minimal media supplemented with 1 mM α-Phe (positive control) and (3) and 19/20 minimal media supplemented with 1 mM β^3-Gly (negative control; β^3-aa that is not a β^3-Phe analog).” left out

T2 sequence (P00959 whole entry): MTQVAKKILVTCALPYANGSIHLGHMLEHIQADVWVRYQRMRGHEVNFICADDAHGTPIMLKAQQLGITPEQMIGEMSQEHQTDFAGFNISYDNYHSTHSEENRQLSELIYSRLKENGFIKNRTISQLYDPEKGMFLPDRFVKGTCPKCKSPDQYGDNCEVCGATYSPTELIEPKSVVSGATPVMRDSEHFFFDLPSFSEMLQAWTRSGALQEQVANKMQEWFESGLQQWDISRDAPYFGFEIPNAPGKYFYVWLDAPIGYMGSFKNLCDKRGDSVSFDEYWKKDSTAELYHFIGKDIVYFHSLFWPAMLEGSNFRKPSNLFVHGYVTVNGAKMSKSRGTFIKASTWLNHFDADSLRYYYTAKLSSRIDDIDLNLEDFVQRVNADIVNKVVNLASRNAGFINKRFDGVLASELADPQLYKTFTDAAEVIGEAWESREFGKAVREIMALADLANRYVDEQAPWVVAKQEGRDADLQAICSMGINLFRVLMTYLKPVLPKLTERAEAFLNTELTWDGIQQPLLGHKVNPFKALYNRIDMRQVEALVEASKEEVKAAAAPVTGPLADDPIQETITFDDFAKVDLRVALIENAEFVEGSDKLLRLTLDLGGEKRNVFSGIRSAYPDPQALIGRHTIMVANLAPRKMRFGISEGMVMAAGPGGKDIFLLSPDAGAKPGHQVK
T1 sequence (P04805 whole entry): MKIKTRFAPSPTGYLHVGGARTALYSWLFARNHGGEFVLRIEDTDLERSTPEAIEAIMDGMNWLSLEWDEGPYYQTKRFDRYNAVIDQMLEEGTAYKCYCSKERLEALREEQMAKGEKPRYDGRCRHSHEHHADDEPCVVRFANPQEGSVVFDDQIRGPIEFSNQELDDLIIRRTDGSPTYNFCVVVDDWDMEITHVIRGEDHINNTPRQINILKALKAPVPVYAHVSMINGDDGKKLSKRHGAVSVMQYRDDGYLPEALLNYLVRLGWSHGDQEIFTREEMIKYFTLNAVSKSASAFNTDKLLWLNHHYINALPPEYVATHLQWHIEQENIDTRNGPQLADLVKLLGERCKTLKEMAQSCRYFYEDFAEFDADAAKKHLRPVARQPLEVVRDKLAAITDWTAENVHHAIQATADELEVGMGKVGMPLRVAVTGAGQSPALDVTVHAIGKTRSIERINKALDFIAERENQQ
T4 sequence (P08312 whole entry): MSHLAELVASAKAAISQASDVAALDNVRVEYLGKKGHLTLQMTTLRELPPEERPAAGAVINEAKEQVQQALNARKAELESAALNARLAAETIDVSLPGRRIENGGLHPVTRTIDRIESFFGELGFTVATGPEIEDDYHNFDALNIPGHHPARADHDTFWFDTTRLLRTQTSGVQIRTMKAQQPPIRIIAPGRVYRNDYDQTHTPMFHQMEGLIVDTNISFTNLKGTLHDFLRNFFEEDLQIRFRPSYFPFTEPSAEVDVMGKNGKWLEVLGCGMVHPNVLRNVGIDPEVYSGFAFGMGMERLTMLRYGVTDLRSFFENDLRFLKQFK
T4 sequence (P07395 whole entry partner): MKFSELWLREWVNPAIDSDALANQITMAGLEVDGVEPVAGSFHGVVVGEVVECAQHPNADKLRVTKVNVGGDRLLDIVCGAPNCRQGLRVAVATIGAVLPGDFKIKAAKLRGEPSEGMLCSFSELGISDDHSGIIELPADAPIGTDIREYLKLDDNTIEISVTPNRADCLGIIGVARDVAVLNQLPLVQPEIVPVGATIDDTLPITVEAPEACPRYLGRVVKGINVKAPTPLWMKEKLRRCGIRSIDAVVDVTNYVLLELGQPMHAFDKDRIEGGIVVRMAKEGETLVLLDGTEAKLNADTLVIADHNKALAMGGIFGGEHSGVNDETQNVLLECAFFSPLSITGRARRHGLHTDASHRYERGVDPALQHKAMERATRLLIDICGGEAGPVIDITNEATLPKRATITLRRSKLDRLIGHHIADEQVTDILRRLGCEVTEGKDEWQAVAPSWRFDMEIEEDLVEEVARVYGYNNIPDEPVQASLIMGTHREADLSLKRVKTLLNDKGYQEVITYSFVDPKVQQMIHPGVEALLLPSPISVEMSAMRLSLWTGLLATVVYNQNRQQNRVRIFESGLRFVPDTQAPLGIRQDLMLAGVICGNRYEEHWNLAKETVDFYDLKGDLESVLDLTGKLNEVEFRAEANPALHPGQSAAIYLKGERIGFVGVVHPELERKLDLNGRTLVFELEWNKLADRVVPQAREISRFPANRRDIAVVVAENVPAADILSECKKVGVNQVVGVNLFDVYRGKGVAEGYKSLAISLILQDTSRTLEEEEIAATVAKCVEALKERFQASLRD

N[C@@H](CCC(=O)O)C(=O)O [α-Glu, Glutamic Acid]
Ratio (α/β) of KM (E. coli GluRS [1]): 0.94 ± 0.60 | Ratio (α/β) of kcat (E. coli GluRS [1]): 61.2 ± 9.1 | Ratio (α/β) of kcat/KM (E. coli GluRS [1]): 82.78 ± 68.2 | krev (apparent rate of deacylation) (E. coli GluRS [2]): 0.32 ± 0.14 min⁻¹ | Ratio (α/β) of krev (E. coli GluRS [2]; deacylation, GluRS): 0.73 ± 0.42 | Ratio (α-/β-) of KM (E. coli GluRS [3]): 0.35 ± 0.27 | Ratio (α-/β-) of RSA (E. coli GluRS [3]): 31.6 ± 6.4 | Ratio (α-/β-) of kcat/KM (E. coli GluRS [3]): 89.0 ± 70^ | kcat (min^−1) or RSA (^32P-ATP formed min^−1 enzyme μM^−1) (E. coli GluRS [3]): 1349 ± 206 ^32P-ATP formed min^−1 enzyme μM^−1

CSCC[C@H](N)C(=O)O [α-Met, Methionine]
Ratio (α-/β-) of KM (E. coli MetRS [4]; adenylation): 0.70 ± 0.5 | Ratio (α-/β-) of RSA (E. coli MetRS [4]; adenylation): 1.4 ± 0.2 | Ratio (α-/β-) of kcat/KM (E. coli MetRS [4]; adenylation): 1.98 ± 1.5 | preference for α-Met over β^3-Met (E. coli MetRS [4]; adenylation phase): 2 fold | kcat (min^−1) or RSA (^32P-ATP formed min^−1 enzyme μM^−1) (E. coli MetRS [4]; adenylation): 430 ± 38 ^32P-ATP formed min^−1 enzyme μM^−1 | Ratio (α/β) of KM (E. coli MetRS [5]; aminoacylation): 0.40 ± 0.18 | Ratio (α/β) of kcat (E. coli MetRS [5]; aminoacylation): 6.8 ± 1.3 | Ratio (α/β) of kcat/KM (E. coli MetRS [5]; aminoacylation): 17.0 ± 8.5 | preference (kcat/KM) for α-Met over β^3-Met (E. coli MetRS [5]; complete aminoacylation reaction): 19 fold | krev (apparent rate of deacylation) (E. coli MetRS [6]): 2.1 ± 1.7 min⁻¹ | Ratio (α/β) of krev (E. coli MetRS [6]; deacylation, MetRS): 0.52 ± 0.49

N[C@@H](Cc1ccc(O)cc1)C(=O)O [α-Tyr, Tyrosine]
Ratio (α-/β-) of KM (E. coli TyrRS [7]): 0.047 ± 0.03 | Ratio (α-/β-) of kcat (E. coli TyrRS [7]): 46.2 ± 7.7 | Ratio (α-/β-) of kcat/KM (E. coli TyrRS [7]): 972.6 ± 632.0 | Ratio (α/β) of kcat (E. coli TyrRS [8]): 56.3 ± 6.8 | Ratio (α/β) of kcat/KM (E. coli TyrRS [8]): 1541.7 ± 724.3 | krev (apparent rate of deacylation) (E. coli TyrRS [9]): 1.9 ± 1.3 min⁻¹ | Ratio (α/β) of krev (E. coli TyrRS [9]; deacylation, TyrRS): 1.01 ± 0.75

NC(CCC(=O)O)CC(=O)O (stereo not drawn) [β-Glu, β^3-glutamic acid]
Km (E. coli GluRS [1]): 375 ± 271 µM | kcat (E. coli GluRS [1]; 2 μM tRNA): 1.25e-05 ± 1.5e-06 s⁻¹ | krev (apparent rate of deacylation) (E. coli GluRS [2]): 0.43 ± 0.15 min⁻¹ | Km (E. coli GluRS [3]): 215 ± 110 µM | kcat (min^−1) or RSA (^32P-ATP formed min^−1 enzyme μM^−1) (E. coli GluRS [3]): 42.7 ± 5.8 ^32P-ATP formed min^−1 enzyme μM^−1

CSCCC(N)CC(=O)O (stereo not drawn) [β-Met, β^3-methionine]
Km (E. coli MetRS [4]; adenylation): 33.4 ± 22 µM | kcat (min^−1) or RSA (^32P-ATP formed min^−1 enzyme μM^−1) (E. coli MetRS [4]; adenylation): 310 ± 47 ^32P-ATP formed min^−1 enzyme μM^−1 | Km (E. coli MetRS [5]; aminoacylation): 609 ± 243 µM | kcat (E. coli MetRS [5]; aminoacylation, 2 μM tRNA): 0.0035 ± 0.0005 s⁻¹ | krev (apparent rate of deacylation) (E. coli MetRS [6]): 4.0 ± 1.8 min⁻¹

NC(CC(=O)O)Cc1ccccc1 (stereo not drawn) [β-Phe, β^3-phenylalanine]
Km (E. coli PheRS [10]): 119 ± 51.5 µM | kcat (E. coli PheRS [10]; 2 μM tRNA): 0.004 ± 0.0005 s⁻¹ | krev (apparent rate of deacylation) (E. coli PheRS [11]): 0.32 ± 0.03 min⁻¹ | Km (E. coli PheRS [12]): 300 ± 137 µM | kcat (min^−1) or RSA (^32P-ATP formed min^−1 enzyme μM^−1) (E. coli PheRS [12]; RSA, 25° C., pH 7.0): 41.6 ± 6.8 ^32P-ATP formed min^−1 enzyme μM^−1

NC(CC(=O)O)Cc1ccc(O)cc1 (stereo not drawn) [β-Tyr, β^3-tyrosine]
Km (E. coli TyrRS [7]): 450 µM | kcat (min^−1) or RSA (^32P-ATP formed min^−1 enzyme μM^−1) (E. coli TyrRS [7]; kcat (turnover number)): 0.027 ± 0.001 min⁻¹ | Km (E. coli TyrRS [8]): 340 ± 80.3 µM | kcat (E. coli TyrRS [8]; 2 μM tRNA): 0.0208 ± 0.012 s⁻¹ | krev (apparent rate of deacylation) (E. coli TyrRS [9]): 1.9 ± 0.6 min⁻¹

NC(CC(=O)O)Cc1ccc(Br)cc1 (stereo not drawn) [β^3-(p-Br)Phe]
level of DHFR [13]: significant levels | level of DHFR [14]: highest levels | amount of DHFR generated [15]: trace amounts | lower incorporation of β^3-(p-Br)Phe relative to α-Phe ([16]; cells expressing 040329 ribosomes): 30 fold | lower incorporation of β^3-(p-Br)Phe relative to α-Phe ([16]; cells expressing P7A7 ribosomes): 10 fold
